Here are results for six compounds from US10450549B2, “Aryloxyphenoxypropionate tolerance in turfrgass species and use of AAD1 as a selectable marker” (Dow AgroSciences, LLC, priority 2004, dated 2019).

In assay [1] the test system is non-transformed (NT) and seed-derived (WT) creeping bentgrass. As to the kind of experiment: Quizalofop-p-ethyl postemergence on non-transformed / seed-derived creeping bentgrass controls. It counts as in vivo, Agrostis stolonifera L. var. palustris. On the procedure: Selected T0 plants were sprayed with quizalofop-p-ethyl (Assure II®, DUPONT, Wilmington, Del.) at rates ranging from 60 to 2,240 g ae/ha. […] This rate also controls susceptible monocot weed species. Measured amounts were placed individually in 25 mL glass vials and dissolved in a 4 mL volume of 1.0% (v/v) Agri-Dex® Crop Oil Concentrate (COC) from HELENA CHEMICAL (Collierville, Tenn.). Application solutions were prepared by serial dilution of the highest rate applied. One-half the volume of the highest rate stock solution (2 mL) was transferred to a clean 25 mL vial containing an equal volume of 1% COC and the diluted solution was mixed. Additional dilutions were prepared similarly by removing one-half the volume of the previous concentration (2 mL), and adding to an equal volume of 1% COC and mixing. When preparing the lowest concentration, the remaining one-half volume was discarded. All 2 mL stock solutions were further diluted by adding 10 mL aqueous mixture of 1.0% (v/v) COC, so that the final spray solutions were 12 mL in volume and contained 1.0% (v/v) COC.
Spray solutions were applied to the plant material with an overhead Mandel™ track sprayer equipped with a 8002E nozzles calibrated to deliver 187 L/ha over an application area of 0.503 square meters (m^2) at a spray height of 18 inches (46 cm) above average plant canopy height. Control plants were sprayed in the same manner with the COC blank.
The treated plants and control plants were placed in a greenhouse, and watered by sub-irrigation to prevent wash-off of the test compounds. At various times after application, the condition of the test plants as compared with that of the untreated plants was determined visually and scored on a scale of 0 to 100 percent (where 0 corresponds to no injury or growth inhibition and 100 corresponds to complete kill). Regenerated, non-transformed (NT) ‘Crenshaw’ or elite line 2905-2 creeping bentgrass plants and/or seed-derived clonally propagated plants served as quizalofop sensitive controls.

The subject of assay [2] is AAD1 (v3)-transformed T0 corn events. As to the kind of experiment: Tolerance of T0 AAD1 (v3) corn plants (pDAB3404) to postemergence AOPP herbicides. It counts as in vivo.
The test system of assay [3] is creeping bentgrass cv Crenshaw callus. Put plainly: Callus selection conditions with quizalofop and haloxyfop: creeping bentgrass. It is filed as cell-based, Agrostis stolonifera. On the procedure:
(§1) Selection conditions for creeping bentgrass cv Crenshaw and Kentucky bluegrass cv Shamrock were established using the grass-active herbicides, quizalofop and haloxyfop. Concentrations of quizalofop and haloxyfop ranged from 0 to 300 nM dissolved in defined callus maintenance media for each species. Callus tissue, derived from mature seeds of each species or cultivar, was used in the experiment. In the case of creeping bentgrass cv Crenshaw, calli maintained on CBG-3 medium were transferred to plates of CBG-3 medium containing either haloxyfop or quizalofop at 0, 50, 100, 150, 200, 250, and 300 nM final concentrations. Visual observations (growth of callus and development of necrosis) were made over a period of 1.5 months. For Kentucky bluegrass cv Shamrock and experimental line A98, calli maintained on KBG-2 were transferred to plates of KBG-2 medium containing 0, 50, 100, 150, 200, 250, and 300 nM final concentrations of the herbicides. Visual observations of callus growth and necrosis were made over a 2.5 month period. […] The calli became necrotic at lower concentrations of quizalofop relative to haloxyfop and the response was more rapid. […]

Assay [4] deals with Kentucky bluegrass cv Shamrock callus. Put plainly: Callus selection conditions with quizalofop and haloxyfop: Kentucky bluegrass. It counts as cell-based. The protocol:
as §1

Assay [5] relates to Hi-II corn grown from seed. Put plainly: Lethal dose of AOPP herbicides on non-transformed Hi-II corn. As to conditions: for rate that effectively kills (>95% injury) three to four leaf Hi-II corn: postemergence, commercial formulations.
Assay [6] addresses T1, AAD1 (v1) (Sphingobium herbicidovorans, UniProt Q8KSC8).
T1 construct: made in house; host or cells: E. coli BL-21 Star (DE3), plasmid pDAB3203
Put plainly: HPLC analysis of herbicide degradation by AAD1 (v1) cell extract. It counts as biochemical.

The test system of assay [7] is Arabidopsis thaliana var. Columbia. Put plainly: Arabidopsis plate test bioassay for herbicide degradation. Particulars: for IC50: 168 h; for GR50 ratio: enzyme-expressing lysate vs blank vector, ≥ 2 = threshold for activity loss; for herbicidal activity after AAD1 (v1) treatment, Arabidopsis plate assay: unpurified recombinant AAD1 (v1) extract. It is filed as in vivo.

The mark [8] stands for this setting: Arabidopsis thaliana, read-out: GR50, Chemical + AAD1 v1.
Where [9] appears, read: Escherichia coli, in Arabidopsis thaliana, cell lysate of E. coli pET vector without gene insert, read-out: GR50, Chemical + Blank Vector.

SMILES strings stand for the structures. Where two headings read alike, the source gives them in different places.

T1 sequence (Q8KSC8 whole entry): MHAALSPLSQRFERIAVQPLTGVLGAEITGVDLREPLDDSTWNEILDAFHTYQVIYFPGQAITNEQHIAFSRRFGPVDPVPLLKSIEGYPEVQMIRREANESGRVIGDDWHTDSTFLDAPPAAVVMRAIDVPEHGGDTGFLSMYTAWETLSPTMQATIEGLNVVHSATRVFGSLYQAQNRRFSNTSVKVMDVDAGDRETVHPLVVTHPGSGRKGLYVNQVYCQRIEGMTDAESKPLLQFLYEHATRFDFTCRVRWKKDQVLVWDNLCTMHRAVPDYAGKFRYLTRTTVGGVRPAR

`CCOC(=O)[C@@H](C)Oc1ccc(Oc2cnc3cc(Cl)ccc3n2)cc1` [quizalofop-p-ethyl]: the “Visual Injury 39 DAA” value in assay [1] (240 g ae/ha, regenerated non-transformed control NT1) came to 95%. Also, the “injury on non-transformed controls” value in assay [1] (both rates (120 and 480 g ae/ha)) was no less than 80%. The “Mean % Injury (SE)” value in assay [1] (non-transformed control NT1, 120 g ae/ha, 11 DAA) is 83 (3) %; in assay [1] (non-transformed control NT1, 120 g ae/ha, 14 DAA), 88 (3) %; in assay [1] (non-transformed control NT1, 120 g ae/ha, 20 DAA), 90 (0) %; in assay [1] (non-transformed control NT1, 480 g ae/ha, 11 DAA) it was 85 (0) %; in assay [1] (non-transformed control NT1, 480 g ae/ha, 14 DAA) it was 90 (0) %; in assay [1] (non-transformed control NT1, 480 g ae/ha, 20 DAA), 97 (2) %. Moreover, the “Mean % Injury (SE)” value in assay [1] (non-transformed control NT2, 120 g ae/ha, 11 DAA) was 80 (0) %; in assay [1] (non-transformed control NT2, 120 g ae/ha, 14 DAA), 90 (0) %; in assay [1] (non-transformed control NT2, 120 g ae/ha, 20 DAA), 93 (3) %; in assay [1] (non-transformed control NT2, 480 g ae/ha, 11 DAA), 90 (0) %; in assay [1] (non-transformed control NT2, 480 g ae/ha, 14 DAA) it was 90 (0) %; in assay [1] (non-transformed control NT2, 480 g ae/ha, 20 DAA) it was 97 (2) %. In addition, the “GR90 (herbicide rate which produces 90% injury and/or growth inhibition)” value in assay [1] (seed grown plants) is “approximately 60 g ae/ha”.
Turning to `C[C@@H](Oc1ccc(Oc2cnc3cc(Cl)ccc3n2)cc1)C(=O)O` [quizalofop], the “injury of most AAD1 (v3) T0 lines” value in assay [2] (8× field dose (64× lethal dose), 14 DAT) is on record as “no visible injury”. Besides, the “% Injury 14 DAT” value is 0% in assay [2] (8.8 g ae/ha, construct 3404 event 001 clone 017); 30% in assay [2] (8.8 g ae/ha, construct 3404 event 001 clone 019); 0% in assay [2] (8.8 g ae/ha, construct 3404 event 022 clone 021); 0% in assay [2] (8.8 g ae/ha, construct 3404 event 038 clone 017); 0% in assay [2] (17.5 g ae/ha, construct 3404 event 022 clone 017); 0% in assay [2] (35 g ae/ha, construct 3404 event 001 clone 020). Besides, the “% Injury 14 DAT” value was found to be 0% in assay [2] (35 g ae/ha, construct 3404 event 017 clone 018); 0% in assay [2] (35 g ae/ha, construct 3404 event 017 clone 019); 0% in assay [2] (35 g ae/ha, construct 3404 event 022 clone 022); 0% in assay [2] (35 g ae/ha, construct 3404 event 033 clone 012); 70% in assay [2] (35 g ae/ha, construct 3404 event 038 clone 019); 80% in assay [2] (35 g ae/ha, construct 3404 event 038 clone 020). Besides, the “% Injury 14 DAT” value is given as 0% in assay [2] (70 g ae/ha, construct 3404 event 017 clone 020); 0% in assay [2] (70 g ae/ha, construct 3404 event 017 clone 021); 0% in assay [2] (70 g ae/ha, construct 3404 event 022 clone 023); 0% in assay [2] (70 g ae/ha, construct 3404 event 033 clone 013); 0% in assay [2] (70 g ae/ha, construct 3404 event 033 clone 014); 80% in assay [2] (70 g ae/ha, construct 3404 event 038 clone 021). Besides, the “% Injury 14 DAT” value in assay [2] (70 g ae/ha, construct 3404 event 038 clone 022) came to 80%; in assay [2] (140 g ae/ha, construct 3404 event 017 clone 022), 0%; in assay [2] (140 g ae/ha, construct 3404 event 017 clone 023) it was 30%; in assay [2] (140 g ae/ha, construct 3404 event 033 clone 015), 0%; in assay [2] (280 g ae/ha, construct 3404 event 017 clone 024), 30%; in assay [2] (280 g ae/ha, construct 3404 event 017 clone 025) it was 20%. Further, the “% Injury 14 DAT” value in assay [2] (280 g ae/ha, construct 3404 event 033 clone 016) was 0%. Besides, the “injury of control, non-transgenic plants” value in assay [1] (60 g ae/ha, 21 to 24 DAA) is reported as “about 70%”; in assay [1] (120 and 480 g ae/ha, 11, 14, 20 DAA), “about 80% injury to greater than 90% injury”; in assay [1] (120 g ae/ha, 21 to 24 DAA) it was roughly 80%; in assay [1] (240 g ae/ha, 21 to 24 DAA) it was roughly 90%; in assay [1] (480 g ae/ha, 21 to 24 DAA), roughly 100%. Moreover, in assay [3], the “concentration sufficient to kill callus within six weeks” value stood at 150 nM. Besides, the “concentration needed to kill all calli” value in assay [4] was 200 nM. Moreover, the lethal dose in assay [5] (Assure II + 1% COC (v/v)) was determined as 4.4 g ae/ha). For the same compound, the “rate that effectively kills (>95% injury) three to four leaf Hi-II corn” value in assay [5] stood at 4.4 g ae/ha.
On to `Nc1c(Cl)c(F)nc(OCC(=O)O)c1Cl` [Fluroxypyr], for which, in assay [6] (AAD1 (v1) cell extract, same conditions as 2,4-D), the “enzyme activity on substrate (HPLC)” value is listed as “No enzyme activity was detected”. The IC50 in assay [7] (setting [8]) was found to be 1820 nM; in assay [7] (Arabidopsis thaliana, root length, 7 days, read-out: GR50, Chemical alone), 2200 nM; in assay [7] (setting [9]) it was 2250 nM. For the same compound, the GR50 ratio in assay [7] is listed as less than 1.
Take `O=C(O)COc1ccc(Cl)cc1Cl` [2,4-D, 2,4-dichlorophenoxyacetic acid]: in assay [6] (partially purified proteins, in vitro), the “conversion of 2,4-D to DCP” value is on record as 50-100%. In assay [6] (regardless of assay conditions (longer incubations, more enzyme)), the “2,4-D degraded to DCP as measured by HPLC” value was 50-75%. Moreover, the IC50 in assay [7] (setting [8]) came to 267 nM; in assay [7] (Arabidopsis thaliana, read-out: GR50, Chemical alone), 22 nM; in assay [7] (Escherichia coli, in Arabidopsis thaliana, read-out: GR50, Chemical + Blank Vector), 17 nM. In addition, in assay [7], the “herbicidal activity after AAD1 (v1) treatment, Arabidopsis plate assay” value was “almost complete loss”.
With `CC(Oc1ccc(Cl)cc1Cl)C(=O)O` (racemic) [(R,S)-dichlorprop, 2,4-dichlorophenoxypropionic acid], the IC50 in assay [7] (Arabidopsis thaliana, AAD1 (v1)-expressing lysate, nominal concentration, read-out: GR50, Chemical + AAD1 v1) was found to be 1000 nM. In assay [7] (setting [9]), the IC50 was determined as 30 nM. Besides, in assay [7], the GR50 ratio was determined as 33 and the “herbicidal activity after AAD1 (v1) treatment, Arabidopsis plate assay” value is on record as “effectively degraded”.
As to `CC(Oc1ccc(Oc2ncc(C(F)(F)F)cc2Cl)cc1)C(=O)O` (centres unmarked) [haloxyfop], the “% Injury 14 DAT” value in assay [2] (8.8 g ae/ha, construct 3404 event 001 clone 016) is on record as 0%; in assay [2] (8.8 g ae/ha, construct 3404 event 022 clone 019) it was 0%; in assay [2] (8.8 g ae/ha, construct 3404 event 038 clone 016), 0%; in assay [2] (17.5 g ae/ha, construct 3404 event 022 clone 016), 0%; in assay [2] (17.5 g ae/ha, construct 3404 event 022 clone 020), 0%. The “concentration sufficient to kill callus within six weeks” value in assay [3] is 250 nM. In assay [4], the “concentration needed to kill all calli” value was determined as 300 nM. Further, the lethal dose in assay [5] (Gallant super + 1% COC (v/v)) is on record as 8.8 g ae/ha). For the same compound, in assay [5], the “rate that effectively kills (>95% injury) three to four leaf Hi-II corn” value is reported as 8.8 g ae/ha.
